Data taken from article PMC5823406, “Vehicle development, pharmacokinetics and toxicity of the anti-invasive agent 4-fluoro-3’,4’,5’-trimethoxychalcone in rodents” (PLoS ONE, 2018).
“Also recorded” adds a separate entry of the source.

Experiments:
[1] = Solubility in vehicles, visual determination; type: physicochemical
Protocol: C16 has low aqueous solubility, which limits the choice of preclinical formulations for in vivo studies. In this work, thirteen vehicles were evaluated for their applicability in single-dose studies (Table 1). For commonly used systems (entries a-e) visual determination of solubility was conducted, while for the more complex systems solubility was assessed by laser nephelometry.

[2] = Stability and homogeneity of C16 dispersion in Medigel Sucralose; type: physicochemical; settings: for Peak ratio C16/IS relative to first time point, Average of three wavelengths: Medigel Sucralose 235.29 mg/cup, 1.64% DMSO
Protocol: A pre-weighed amount of C16 was dissolved in 1 mL of DMSO and the resulting solution was delivered into a cup of Medigel sucralose (pre-warmed to room temperature) with a syringe through the foil lid. In order to facilitate even distribution of C16 in the gel, the injection was spread over several points. The resulting suspension of C16 in gel was dispersed evenly by vigorous shaking for at least two minutes. Visual control confirmed a uniform and finely dispersed suspension of C16 particles in the gel. The final DMSO concentration in the gel was 1.64%. […]
A.B. Vehicle development for repeated high-dose PO administration of C16 b. Stability test of the 300 mg/kg preparation of C16 in Medigel Sucralose at room temperature The 300 mg/kg preparation refers to a cup containing 235.29 mg of C16 and 1.64% DMSO (see Materials and Methods section of main text). Sampling took place for a solvent control cup (containing only 1.64% DMSO) , and for the medicated cup at 0.17, 5.33, 55, 102 and 144 h post preparation. Samples of 1 mL were withdrawn with syringe and needle through the lid, and mixed with 1 mL of acetonitrile. The supernatant of the resulting suspension was filtered through a Whatman 0.2 µm PTFE syringe filter and analyzed using HPLC -MS.
Instrument: Agilent 1200 series HPLC system
Column: Ascentis Express C18 column 2.7 µm (30 x 4.6 mm)
Mobile phase A: Water (H2O) + 5 mM NH4OAc
Mobile phase B: Acetonitrile
Column Temperature: 40 °C
UV Detector: Diode array detector, 190 – 400 nm
Table B. Stability of C16 in Medigel Sucralose: g radient program .
Time (min) Flow rate (mL/min) A (%) B (%)
Mass spectrometer conditions
Instrument: Agilent 1100 series VL mass spectrometer
Ionization mode: API-ES, positive ions
Main derivative: Z-isomer of C16
Retention time : 3.34 min
Table C. Stability of C16 in Medigel Sucralose: evolution of peak areas of IS, C16 and its Z-isomer in time for three wavelengths. […]
time IS peak C16 Z- Ratio IS peak C16 Z- Ratio IS peak C16 Z- Ratio
(h) area peak isomer (C16/IS area peak isomer (C16/IS area peak isomer (C16/IS (mAU.s) area peak peak (mAU.s) area peak peak (mAU.s) area peak peak
(mAU.s) area area) (mAU.s) area area) (mAU.s) area area)
Peak ratios for stability assessment
Peak ratios for C16/IS, relative to the first time point, were calculated for three wavelengths (Table D).
Table D. Stability of C16 in Medigel Sucralose: peak ratios for C16/IS, relative to first time point, for three wavelengths.
Peak ratios for homogeneity assessment of a 300 mg/kg C16-doped gel
The 300 mg/kg preparation refers to a cup containing 235.29 mg of C16 and 1.64% DMSO. After preparation (see ‘Materials and Methods’ section of main text), the gel was sampled through the lid at five sites (Fig A).
Fig A. Sampling of C16-doped Medigel Sucralose.
The samples were analyzed according to the method described above for the stability test of C16 in Medigel Sucralose […]
Table E. Peak areas of IS, C16 and its Z-isomer at five sampling sites for three wavelengths. […]
sites IS peak C16 peak Ratio IS peak C16 peak Ratio IS peak C16 peak Ratio area area (C16/IS area area (C16/IS area area (C16/IS
(mAU.s) (mAU.s) peak area) (mAU.s) (mAU.s) peak area) (mAU.s) (mAU.s) peak area) […]
Individual plasma concentrations for C16 are shown in Table F and Table G. All data are expressed as ng/mL of the free drug. Samples that were below the limit of quantitation were not used in the calculation of averages. Plasma concentrations versus time data are plotted in Fig B and Fig C. Measured dosing concentrations were used in all pharmacokinetic calculations.
(1 picture or pasted object on this page, not shown here)

COc1cc(C(=O)/C=C/c2ccc(F)cc2)cc(OC)c1OC [C16, 4-fluoro-3’,4’,5’-trimethoxychalcone]
Solubility of C16 in vehicle: Result ([1]; 10% (DMSO / Cremophor EL 1:1) / 90% Milli-Q water, 2 mg/mL): Insoluble ^a
Solubility of C16 in vehicle: Result ([1]; 10% DMSO in normal saline, 1 mg/mL): Insoluble ^a
Solubility of C16 in vehicle: Result ([1]; 20% DMSO / 10% (DMSO / Cremophor EL 1:1) / 70% Milli-Q water, 2 mg/mL): Soluble ^a
Solubility of C16 in vehicle: Result ([1]; 50% DMSO in normal saline, 1 mg/mL): Insoluble ^a
Solubility of C16 in vehicle: Result ([1]; DMSO, 10 mg/mL): highly soluble; also recorded: Soluble ^a
Peak ratio C16/IS relative to first time point, Average of three wavelengths ([2]; room temperature, 5.3 h): 90.3
Peak ratio C16/IS relative to first time point, Average of three wavelengths ([2]; room temperature, 55 h): 95.0
Peak ratio C16/IS relative to first time point, Average of three wavelengths ([2]; room temperature, 102 h): 96.9
Peak ratio C16/IS relative to first time point, Average of three wavelengths ([2]; room temperature, 144 h): 85.8
Distribution of compound in Medigel Sucralose ([2]; five sampling sites): uniformly distributed
Stability of suspension in Medigel Sucralose ([2]; room temperature, over 144 h): stable
